Measured values from PMC5218480 (PLoS ONE, 2017).

Test system: MV-4-11 cells
Assay: Gene expression microarray analysis (Affymetrix PrimeView) and GSEA
Type: cell-based, human
Set-up: RFU PODN (11730768_x_at) / Fold change /veh PODN (11730768_x_at) / RFU LINC00158 (11744669_a_at) / Fold change /veh LINC00158 (11744669_a_at) / RFU DUSP10 (11751237_a_at) / Fold change /veh DUSP10 (11751237_a_at) / RFU ID3 (11757404_x_at) / Fold change /veh ID3 (11757404_x_at) / RFU PLEKHG5 (11737974_s_at) / Fold change /veh PLEKHG5 (11737974_s_at) / RFU LRRC4B (11730491_at) / Fold change /veh LRRC4B (11730491_at) / RFU GIMAP4 (11747438_a_at) / Fold change /veh GIMAP4 (11747438_a_at) / RFU KRT8 (11758183_x_at) / Fold change /veh KRT8 (11758183_x_at) / RFU CNN1 (11734310_a_at) / Fold change /veh CNN1 (11734310_a_at) / RFU VPS37D (11726825_at) / Fold change /veh VPS37D (11726825_at) / RFU C10orf10 (11716522_x_at) / Fold change /veh C10orf10 (11716522_x_at) / RFU KIR2DL2 /// KIR2DL4 /// KIR2DL5A /// KIR2DL5B /// KIR2DS1 /// KIR2DS2 /// KIR2DS3 /// KIR2DS4 /// KIR3DL3 /// KIR3DL3 /// KIR3DS1 (11738374_at) / Fold change /veh KIR2DL2 /// KIR2DL4 /// KIR2DL5A /// KIR2DL5B /// KIR2DS1 /// KIR2DS2 /// KIR2DS3 /// KIR2DS4 /// KIR3DL3 /// KIR3DL3 /// KIR3DS1 (11738374_at) / RFU C1QL1 (11718748_at) / Fold change /veh C1QL1 (11718748_at) / RFU TMPRSS4 (11747572_a_at) / Fold change /veh TMPRSS4 (11747572_a_at) / RFU HAMP (11756126_x_at) / Fold change /veh HAMP (11756126_x_at) / RFU RNFT2 (11725882_a_at) / Fold change /veh RNFT2 (11725882_a_at) / RFU NR4A2 (11747474_a_at) / Fold change /veh NR4A2 (11747474_a_at) / RFU ABCC12 (11746883_a_at) / Fold change /veh ABCC12 (11746883_a_at) / RFU TMEM136 (11760407_x_at) / Fold change /veh TMEM136 (11760407_x_at) / RFU CLDN22 /// WWC2 (11732394_at) / Fold change /veh CLDN22 /// WWC2 (11732394_at) / RFU HLA-DPB1 (11760878_x_at) / Fold change /veh HLA-DPB1 (11760878_x_at) / RFU SPINT1 (11716480_a_at) / Fold change /veh SPINT1 (11716480_a_at) / RFU GAP43 (11754022_s_at) / Fold change /veh GAP43 (11754022_s_at) / RFU A4GNT (11735810_at) / Fold change /veh A4GNT (11735810_at) / RFU PRB3 (11715151_x_at) / Fold change /veh PRB3 (11715151_x_at) / RFU TUBB4B (11761932_at) / Fold change /veh TUBB4B (11761932_at) / RFU CAPN14 (11732068_a_at) / Fold change /veh CAPN14 (11732068_a_at) / RFU TMCC2 (11721928_a_at) / Fold change /veh TMCC2 (11721928_a_at) / RFU IRGQ (11745062_a_at) / Fold change /veh IRGQ (11745062_a_at) / RFU FAM174B (11720279_a_at) / Fold change /veh FAM174B (11720279_a_at) / RFU TMPRSS4 (11748680_a_at) / Fold change /veh TMPRSS4 (11748680_a_at) / RFU FAM212B (11763350_a_at) / Fold change /veh FAM212B (11763350_a_at) / RFU PLEKHG5 (11743358_a_at) / Fold change /veh PLEKHG5 (11743358_a_at) / RFU ZSCAN30 (11745921_a_at) / Fold change /veh ZSCAN30 (11745921_a_at) / RFU CMKLR1 (11741424_a_at) / Fold change /veh CMKLR1 (11741424_a_at) / RFU LOC101060620 /// MAPK8IP1 (11723275_at) / Fold change /veh LOC101060620 /// MAPK8IP1 (11723275_at) / RFU SPTSSB (11747773_x_at) / Fold change /veh SPTSSB (11747773_x_at) / RFU PRSS12 (11739890_at) / Fold change /veh PRSS12 (11739890_at) / RFU BIN1 (11741810_x_at) / Fold change /veh BIN1 (11741810_x_at) / RFU WNT11 (11732464_a_at) / Fold change /veh WNT11 (11732464_a_at) / RFU C10orf10 (11716521_a_at) / Fold change /veh C10orf10 (11716521_a_at) / RFU C5orf56 (11738089_at) / Fold change /veh C5orf56 (11738089_at) / RFU CYB561 (11721691_x_at) / Fold change /veh CYB561 (11721691_x_at) / RFU ANKRD19P (11752326_a_at) / Fold change /veh ANKRD19P (11752326_a_at) / RFU OR2T12 /// OR2T33 /// OR2T8 (11738714_s_at) / Fold change /veh OR2T12 /// OR2T33 /// OR2T8 (11738714_s_at) / RFU VCAN (11748164_a_at) / Fold change /veh VCAN (11748164_a_at) / RFU JSRP1 (11732532_at) / Fold change /veh JSRP1 (11732532_at) / RFU KRTAP10-11 (11738290_x_at) / Fold change /veh KRTAP10-11 (11738290_x_at) / RFU MYO3A (11730013_a_at) / Fold change /veh MYO3A (11730013_a_at) / RFU EBF3 (11725865_a_at) / Fold change /veh EBF3 (11725865_a_at) / RFU CAMK2N1 (11719241_x_at) / Fold change /veh CAMK2N1 (11719241_x_at) / RFU C5orf56 (11738088_a_at) / Fold change /veh C5orf56 (11738088_a_at) / RFU OLFML3 (11715873_a_at) / Fold change /veh OLFML3 (11715873_a_at) / RFU LOC100653217 /// NTM (11731650_a_at) / Fold change /veh LOC100653217 /// NTM (11731650_a_at) / RFU MAPK11 (11762145_a_at) / Fold change /veh MAPK11 (11762145_a_at) / RFU FIZ1 (11724087_x_at) / Fold change /veh FIZ1 (11724087_x_at) / RFU OASL (11726364_x_at) / Fold change /veh OASL (11726364_x_at) / RFU SOX15 (11748057_x_at) / Fold change /veh SOX15 (11748057_x_at) / RFU CD79A (11719716_a_at) / Fold change /veh CD79A (11719716_a_at) / RFU HIST1H1D (11736915_at) / Fold change /veh HIST1H1D (11736915_at) / RFU CASKIN2 (11723855_a_at) / Fold change /veh CASKIN2 (11723855_a_at) / RFU LOC730098 (11760151_x_at) / Fold change /veh LOC730098 (11760151_x_at) / RFU OR4N2 (11742367_at) / Fold change /veh OR4N2 (11742367_at) / RFU PRRT2 (11749266_a_at) / Fold change /veh PRRT2 (11749266_a_at) / RFU SNX32 (11753110_a_at) / Fold change /veh SNX32 (11753110_a_at) / RFU CDHR5 (11726645_a_at) / Fold change /veh CDHR5 (11726645_a_at) / RFU RCAN1 (11760418_a_at) / Fold change /veh RCAN1 (11760418_a_at) / RFU FAM167A (11723789_a_at) / Fold change /veh FAM167A (11723789_a_at) / RFU FAM26E (11764081_at) / Fold change /veh FAM26E (11764081_at) / RFU ISYNA1 (11749810_s_at) / Fold change /veh ISYNA1 (11749810_s_at) / RFU ACY1 (11761880_at) / Fold change /veh ACY1 (11761880_at) / RFU 11764098_at / Fold change /veh 11764098_at / RFU SAMD14 (11745864_x_at) / Fold change /veh SAMD14 (11745864_x_at) / RFU NPB (11741838_a_at) / Fold change /veh NPB (11741838_a_at) / RFU TMPRSS6 (11731388_a_at) / Fold change /veh TMPRSS6 (11731388_a_at) / RFU KRTAP10-2 (11738614_at) / Fold change /veh KRTAP10-2 (11738614_at) / RFU ARHGAP8 /// PRR5-ARHGAP8 (11727945_x_at) / Fold change /veh ARHGAP8 /// PRR5-ARHGAP8 (11727945_x_at) / RFU KRTAP5-7 /// NADSYN1 (11734609_at) / Fold change /veh KRTAP5-7 /// NADSYN1 (11734609_at) / RFU RASL12 (11751679_a_at) / Fold change /veh RASL12 (11751679_a_at) / RFU CDKN2B (11736163_a_at) / Fold change /veh CDKN2B (11736163_a_at) / RFU PRF1 (11729649_at) / Fold change /veh PRF1 (11729649_at) / RFU, ZNF638 /// ZNF638-IT1 / Fold change vs veh, ZNF638 /// ZNF638-IT1 / RFU, PANK3 / Fold change vs veh, PANK3 / RFU, SH3YL1 / Fold change vs veh, SH3YL1 / RFU, ZEB2 / Fold change vs veh, ZEB2 / RFU, NRIP1 / Fold change vs veh, NRIP1 / RFU, PTTG1IP / Fold change vs veh, PTTG1IP / RFU, CAPN2 / Fold change vs veh, CAPN2 / RFU, MED14 / Fold change vs veh, MED14 / RFU, SNORA58 / Fold change vs veh, SNORA58 / RFU, C1orf63 / Fold change vs veh, C1orf63 / RFU, LRRFIP1 / Fold change vs veh, LRRFIP1 / RFU, NDUFAF7 / Fold change vs veh, NDUFAF7 / RFU, SLC12A2 / Fold change vs veh, SLC12A2 / RFU, IBTK / Fold change vs veh, IBTK / RFU, ESF1 / Fold change vs veh, ESF1 / Fold change vs veh, TMEM50B / RFU, TAOK1 / Fold change vs veh, TAOK1 / RFU, ACBD3 / Fold change vs veh, ACBD3 / RFU, TMA16 / Fold change vs veh, TMA16 / RFU, RWDD3 / Fold change vs veh, RWDD3 / RFU, BCAT1 / Fold change vs veh, BCAT1 / RFU, EDEM3 / Fold change vs veh, EDEM3 / RFU, TMEM33 / Fold change vs veh, TMEM33 / RFU, WDR75 / Fold change vs veh, WDR75 / RFU, AHCTF1 / Fold change vs veh, AHCTF1 / RFU, TFRC / Fold change vs veh, TFRC / RFU, ZDHHC17 / Fold change vs veh, ZDHHC17 / RFU, NOM1 / Fold change vs veh, NOM1 / RFU, ARL8B / Fold change vs veh, ARL8B / RFU, ZBTB11 / Fold change vs veh, ZBTB11 / RFU, TAMM41 / Fold change vs veh, TAMM41 / RFU, KIAA1704 /// LOC100996395 / Fold change vs veh, KIAA1704 /// LOC100996395 / RFU, ING1 / Fold change vs veh, ING1 / RFU, TRMT61B / Fold change vs veh, TRMT61B / RFU, FUBP3 / Fold change vs veh, FUBP3 / RFU, TP53 / Fold change vs veh, TP53 / RFU, TNKS2 / Fold change vs veh, TNKS2 / RFU, ZFP14 / Fold change vs veh, ZFP14 / RFU, ACTR2 / Fold change vs veh, ACTR2 / RFU, PPP3R1 / Fold change vs veh, PPP3R1 / RFU, PIK3R1 / Fold change vs veh, PIK3R1 / RFU, HNRNPA1 / Fold change vs veh, HNRNPA1 / RFU, RNF170 / Fold change vs veh, RNF170 / RFU, ZNF28 / Fold change vs veh, ZNF28 / RFU, RNGTT / Fold change vs veh, RNGTT / RFU, OGT / Fold change vs veh, OGT / RFU, BRD1 / Fold change vs veh, BRD1 / RFU, MARS / Fold change vs veh, MARS / RFU, ZNF655 / Fold change vs veh, ZNF655 / RFU, FAHD1 / Fold change vs veh, FAHD1 / RFU, BDP1 / Fold change vs veh, BDP1 / RFU, LRRCC1 / Fold change vs veh, LRRCC1 / RFU, ARID1A / Fold change vs veh, ARID1A / RFU, ZNF146 / Fold change vs veh, ZNF146 / RFU, ZNF330 / Fold change vs veh, ZNF330 / RFU, GPN3 / Fold change vs veh, GPN3 / RFU, C9orf123 / Fold change vs veh, C9orf123 / RFU, N4BP2L2 / Fold change vs veh, N4BP2L2 / RFU, ARFIP1 / Fold change vs veh, ARFIP1 / RFU, FAM179B / Fold change vs veh, FAM179B / RFU, BCL10 / Fold change vs veh, BCL10 / RFU, UHRF1BP1L / Fold change vs veh, UHRF1BP1L / RFU, BET1 / Fold change vs veh, BET1 / RFU, CNOT2 / Fold change vs veh, CNOT2 / RFU, ZNF268 / Fold change vs veh, ZNF268 / Fold change vs veh, ZNF507 / RFU, DGCR2 / Fold change vs veh, DGCR2 / RFU, WDSUB1 / Fold change vs veh, WDSUB1 / Fold change vs veh, HSP90B1 /// MIR3652 / RFU, ADSS / Fold change vs veh, ADSS / RFU, GK / Fold change vs veh, GK / RFU, ZNF148 / Fold change vs veh, ZNF148 / RFU, TAF9 / Fold change vs veh, TAF9 / RFU, SLC1A5 / Fold change vs veh, SLC1A5 / RFU, SLMO2 / Fold change vs veh, SLMO2 / RFU, ABCC4 / Fold change vs veh, ABCC4 / RFU, LOC101060439 /// RAP1B / Fold change vs veh, LOC101060439 /// RAP1B / RFU, RFX7 / Fold change vs veh, RFX7 / RFU, GTPBP10 / Fold change vs veh, GTPBP10 / RFU, CNEP1R1 / Fold change vs veh, CNEP1R1 / RFU, BIVM-ERCC5 /// ERCC5 / Fold change vs veh, BIVM-ERCC5 /// ERCC5 / RFU, ILF3 / Fold change vs veh, ILF3 / RFU 11762660_at / Fold change /veh 11762660_at / RFU VCAN (11757783_s_at) / Fold change /veh VCAN (11757783_s_at) / RFU DDX43 (11728927_at) / Fold change /veh DDX43 (11728927_at) / RFU KRT8 (11758188_x_at) / Fold change /veh KRT8 (11758188_x_at) / RFU NKD1 (11759106_at) / Fold change /veh NKD1 (11759106_at) / RFU SRD5A1 (11742802_a_at) / Fold change /veh SRD5A1 (11742802_a_at) / RFU TPSAB1 /// TPSB2 (11721975_s_at) / Fold change /veh TPSAB1 /// TPSB2 (11721975_s_at) / RFU GSTM3 (11746129_a_at) / Fold change /veh GSTM3 (11746129_a_at) / RFU IL23R (11737362_x_at) / Fold change /veh IL23R (11737362_x_at) / RFU TMEM51 (11727254_a_at) / Fold change /veh TMEM51 (11727254_a_at) / RFU PIWIL2 (11732686_x_at) / Fold change /veh PIWIL2 (11732686_x_at) / RFU ORM1 (11744905_x_at) / Fold change /veh ORM1 (11744905_x_at) / RFU CCDC152 (11743942_at) / Fold change /veh CCDC152 (11743942_at) / RFU ECM1 (11717891_a_at) / Fold change /veh ECM1 (11717891_a_at) / RFU IL23R (11748794_a_at) / Fold change /veh IL23R (11748794_a_at) / RFU TNFAIP8L3 (11732012_x_at) / Fold change /veh TNFAIP8L3 (11732012_x_at) / RFU MBOAT4 (11741988_at) / Fold change /veh MBOAT4 (11741988_at) / RFU 11764193_at / Fold change /veh 11764193_at / RFU TMEM53 (11763286_at) / Fold change /veh TMEM53 (11763286_at) / RFU MAGEB2 (11727129_at) / Fold change /veh MAGEB2 (11727129_at) / RFU TMEM200A (11744735_a_at) / Fold change /veh TMEM200A (11744735_a_at) / RFU CCDC152 (11751479_a_at) / Fold change /veh CCDC152 (11751479_a_at) / RFU FAM211A (11726209_a_at) / Fold change /veh FAM211A (11726209_a_at) / RFU RGS16 (11746705_a_at) / Fold change /veh RGS16 (11746705_a_at) / RFU VCAN (11755009_s_at) / Fold change /veh VCAN (11755009_s_at) / RFU RHOB (11743442_s_at) / Fold change /veh RHOB (11743442_s_at) / RFU RGS16 (11720943_a_at) / Fold change /veh RGS16 (11720943_a_at) / RFU RGS16 (11720944_at) / Fold change /veh RGS16 (11720944_at) / RFU, VPS4B / Fold change vs veh, VPS4B / RFU, CREB1 / Fold change vs veh, CREB1 / RFU, DNAJC13 / Fold change vs veh, DNAJC13 / RFU, GNAQ / Fold change vs veh, GNAQ / RFU, CDK5R1 / Fold change vs veh, CDK5R1 / RFU, ZRANB3 / Fold change vs veh, ZRANB3 / RFU, CUL4A / Fold change vs veh, CUL4A / RFU, CCNY / Fold change vs veh, CCNY / RFU, UFL1 / Fold change vs veh, UFL1 / RFU, COG3 / Fold change vs veh, COG3 / RFU, DIAPH2 / Fold change vs veh, DIAPH2 / RFU, SKA2 / Fold change vs veh, SKA2 / RFU, AFF3 / Fold change vs veh, AFF3 / RFU, LMF1 / Fold change vs veh, LMF1 / RFU, IPO11 / Fold change vs veh, IPO11 / RFU, DFFB / Fold change vs veh, DFFB / RFU, FOXP1 / Fold change vs veh, FOXP1 / RFU, CARD8 / Fold change vs veh, CARD8 / RFU, STRN3 / Fold change vs veh, STRN3 / RFU, ADK / Fold change vs veh, ADK / RFU, RASSF2 / Fold change vs veh, RASSF2 / RFU, WIPF1 / Fold change vs veh, WIPF1 / RFU, LARP1B / Fold change vs veh, LARP1B / RFU, RASA1 / Fold change vs veh, RASA1 / RFU, RB1 / Fold change vs veh, RB1 / RFU, PPFIA1 / Fold change vs veh, PPFIA1 / RFU, MAT2A / Fold change vs veh, MAT2A / RFU, CCT5 / Fold change vs veh, CCT5 / RFU, WDR92 / Fold change vs veh, WDR92 / RFU, CUX1 / Fold change vs veh, CUX1 / RFU, TTC7A / Fold change vs veh, TTC7A / RFU, TMEM135 / Fold change vs veh, TMEM135 / RFU, DEPTOR / Fold change vs veh, DEPTOR / RFU, CPM / Fold change vs veh, CPM / RFU, DNAJB6 / Fold change vs veh, DNAJB6 / RFU, CACNA2D3 / Fold change vs veh, CACNA2D3 / RFU, DTX4 / Fold change vs veh, DTX4 / RFU, TFCP2 / Fold change vs veh, TFCP2 / RFU, GMCL1 /// GMCL1P1 / Fold change vs veh, GMCL1 /// GMCL1P1 / RFU, AEBP2 / Fold change vs veh, AEBP2 / RFU, SNHG1 /// SNORD22 /// SNORD25 /// SNORD26 /// SNORD27 /// SNORD28 /// SNORD29 /// SNORD31 / Fold change vs veh, SNHG1 /// SNORD22 /// SNORD25 /// SNORD26 /// SNORD27 /// SNORD28 /// SNORD29 /// SNORD31 / Fold change (Aza/veh), C12orf56 (ProbeSet 11735607_a_at) / Fold change (ACY-1035/veh), C12orf56 (ProbeSet 11735607_a_at) / Fold change (Aza/veh), FGFR1OP (ProbeSet 11751329_s_at) / Fold change (ACY-1035/veh), FGFR1OP (ProbeSet 11751329_s_at) / Fold change (Aza/veh), VPS36 (ProbeSet 11739960_a_at) / Fold change (ACY-1035/veh), VPS36 (ProbeSet 11739960_a_at) / RFU SYPL1 (11715823_x_at) / Fold change /veh SYPL1 (11715823_x_at) / RFU IGFBP7 (11715501_s_at) / Fold change /veh IGFBP7 (11715501_s_at) / RFU REEP3 (11722064_at) / Fold change /veh REEP3 (11722064_at) / RFU IGLL1 (11728026_x_at) / Fold change /veh IGLL1 (11728026_x_at): dose or concentration left out as unconfirmed
Conditions: MV-4-11 cells, 48 hours

## Nc1ccc(-c2cccs2)cc1NC(=O)c1ccc2c(c1)cc(C1CC1)n2CCN1CCOCC1 [ACY-1035]
  Fold change /veh PLEKHG5 (11737974_s_at): 1.09
